Measured values from patent US7652037B2, “Methods of lowering lipid levels in a mammal” (City Of Hope, priority 2003, dated 2010).

Experiments:
STZ-Diabetic Rats [1] = test: Tail tendon collagen crosslinking, fluorescence (pepsin digestion) and acid solubility; type: in vivo, rat; conditions: diabetic rats compared with untreated diabetic animals
Experimental: Isolation and preparation of tail tendon collagen was performed according to Kochakian et al., Diabetes 45:1694-1700, 1996. The relative degree of crosslinking and AGE formation in collagen was assessed by pepsin digestion and acid solubility. Pepsin digestion was performed as described previously by Stefek et al., Biochim. Biophys. Acta 1502:398-404, 2000. Briefly, collagen samples of 10 mg from individual rats were digested with pepsin (50 μg/mL in 0.5 mol/l acetic acid) for 24 hours at 37° C. After digestion, the samples were centrifuged at 3000 rpm for 30 minutes at 4° C. and the clear supernatant containing the digested collagen was collected. One hundred microliter aliquots of the supernatant were mixed with 900 μL PBS buffer for measurement of the fluorescence of the sample at 365 nm excitation and 418 nm emission. The hydroxyproline content of the supernatant was calculated following acid hydrolysis using a microassay method according to known methods (Creemers et al., Biotechniques 22:656-658, 1997).
The acid solubility of tail tendon collagen was measured by a modification of the method outlined in Yang et al., Arch. Biochem. Biophys. 412:42-46, 2003. Briefly, samples of about 2 mg collagen were weighed and solubilized in 0.05 M acetic acid overnight at 4° C. The suspensions were centrifuged at 20,000 g 60 minutes at 4° C. and the supernatants and pellets were separated for analysis of hydroxyproline content following acid hydrolysis. Acid solubility was calculated as the percentage of hydroxyproline in the supernatant divided by the total hydroxyproline content in the pellet and the supernatant.

STZ-Diabetic Rats [2] = test: Renal parameters in STZ-diabetic rats treated with LR-9 or LR-74 (Example 10); type: in vivo, rat; conditions: for Kidney/Body wt. Ratio / Plasma Creatinine / Urinary Albumin: 50 mg/L in drinking water, 32 weeks; for decrease of elevated plasma creatinine concentrations: diabetic rats
Experimental: (§1) Diabetes was induced in male Sprague-Dawley rats by a single i.p. injection of STZ (65 mg/kg in citrate buffer, pH 4.5) after an overnight fast. Non-diabetic animals were injected with citrate buffer only. One week after STZ injection, only animals with >20 mmol/L plasma glucose were classified as diabetic and included in the study. Diabetic rats were divided randomly into the following treatment groups: diabetic untreated (D); and two diabetic treatment groups, receiving either LR-9 (D+LR-9) or LR-74 (D+LR-74) at 50 mg/L in drinking water. Three non-diabetic groups were studied concurrently: one untreated non-diabetic group (ND), and two non-diabetic groups treated with either LR-9 (ND+LR-9) or LR-74 (ND+LR-74) at 50 mg/L in drinking water.
Both plasma glucose and body weight were checked before administration of the drug, and no differences were detected among the three diabetic treatment groups or among the three non-diabetic groups. All animals were housed individually and were given free access to food and water. Glycemic control and body weights were monitored periodically. To limit hyperglycemia and ensure that animals maintained body weight, diabetic animals received 3 IU of ultralente insulin two to three times per week. The study was carried out over 32 weeks. Progression of renal dysfunction was assessed by measuring urinary albumin and plasma creatinine concentrations according to known methods. Figarola et al., Diabetologia 46:1140-115, 2003.

STZ-Diabetic Rats [3] = test: Plasma lipids and plasma lipid hydroperoxides in STZ-diabetic rats (Example 13); type: in vivo, rat; conditions: for reduction of plasma lipid hydroperoxides: diabetic animals; for reduction in plasma cholesterol / reduction in plasma triglycerides: diabetic rats compared with untreated diabetic animals; for plasma cholesterol / plasma triglycerides: treated diabetic rats, means/SEM; for plasma cholesterol: untreated diabetic 136±13; for plasma triglycerides: untreated diabetic 598±110
Experimental: as §1
At 32 weeks of the study, the rats were killed by over-anesthetization with isoflourane and cardiac puncture. Blood samples were collected from each animal and transferred accordingly into heparinized vacutainer tubes and were later centrifuged for plasma isolation. Aliquots of these plasma samples were stored at −70° C. until the time of analysis. Kidneys were removed immediately, decapsulated and rinsed in PBS buffer. Sections of the left kidneys were stored in 10% neutral buffered formalin for subsequent microscopic examinations and AGE immunohistochemistry. Sections of abdominal skin and tail of each individual rat were removed, rinsed in PBS buffer and stored at −70° C. for subsequent AGE quantification and crosslinking analyses.

[4] = Hydroxyl radical production, hydroxylation of benzoate by H2O2; conditions: sodium benzoate + H2O2, cell-free
Experimental: The effects of the compounds on free radical production were evaluated in a cell-free system. In vitro hydroxyl radical production was determined by the hydroxylation of benzoate by H2O2 as described in Giardino et al., Diabetes 47:1114-1120, 1998. In brief, 30 mmol/l sodium benzoate in PBS buffer, pH 7.4, was incubated with 10 mmol/l H2O2 overnight at 37° C. alone and in the presence of various amounts of inhibitor compounds. After incubation, aliquots from each sample were analyzed for fluorescence (305 nm excitation; 408 nm emission). Results were expressed as the amount of salicylate equivalent (μM) produced by the hydroxylation of benzoate. Mannitol, a known hydroxyl radical scavenger, was included in the experiment as control.

Human LDL = test: Cu++-mediated oxidation of LDL, TBARS (Example 9); conditions: 5 μM CuCl2, 10-250 μM compound, 5 hours, 37° C.
Experimental: The ability of the LR compounds to inhibit lipid peroxidation was tested using Cu^++-mediated lipid oxidation, a common in vitro model for studies on lipoxidative modifications of proteins. The effects of the LR compounds on lipid peroxidation were studied using Cu^++-mediated oxidation of LDL. Human LDL (50 μg of protein/mL) was incubated at 37° C. in chelex-treated PBS buffer alone or in the presence of 5 μM CuCl2 or 5 μM CuCl2 plus various concentrations of the inhibitor compounds (10-250 μM). After 5 hours of incubation, the amount of thiobarbituric acid reactive substances (expressed as malondialdehyde (MDA) equivalents) generated in the reaction mixture was calculated according to methods described by Dillon et al., Life Sci. #72:1583-1594, 2003. Briefly, aliquots from each sample were precipitated with 20% trichloroacetic acid, centrifuged and an equal volume of 1% thiobarbituric acid was added to the supernatant. The samples then were heated to 95° C. for 10 minutes, and upon cooling, the absorbance was read at 532 nm. Hydrolyzed tetraethoxypropane was used as a standard for the MDA equivalent calculation.

In the case of `CC(C)(Oc1ccc(NC(=O)c2ccc3ccccc3c2)cc1)C(=O)O` [LR-9, 4-(2-napthylcarboxamido) phenoxyisobutyric acid], the “fluorescence and crosslinking of tail tendon collagen (pepsin digestion)” value (from here on “fluorescence and crosslinking”) (STZ-Diabetic Rats [1]) is reported as “significant reduction”, the “Kidney/Body wt. Ratio” value (STZ-Diabetic Rats [2]; diabetic (D) rats) is reported as 1.58 ± 0.11 g/100 g and the “Plasma Creatinine” value (STZ-Diabetic Rats [2]; diabetic (D) rats) is reported as 1.79 ± 0.39 mg/dL. The “Urinary Albumin” value (STZ-Diabetic Rats [2]; diabetic (D) rats) was 18.0 ± 3.7 mg/42 hr, the “decrease of elevated plasma creatinine concentrations” value (STZ-Diabetic Rats [2]) was about 50% and the “Kidney/Body wt. Ratio” value (STZ-Diabetic Rats [2]; non-diabetic (ND) rats) was 0.51 ± 0.01 g/100 g. The “Plasma Creatinine” value (STZ-Diabetic Rats [2]; non-diabetic (ND) rats) was 0.42 ± 0.02 mg/dL, the “Urinary Albumin” value (STZ-Diabetic Rats [2]; non-diabetic (ND) rats) was 4.8 ± 1.2 mg/42 hr and the “reduction of plasma lipid hydroperoxides” value (STZ-Diabetic Rats [3]) was 35%. The “reduction in plasma cholesterol” value (STZ-Diabetic Rats [3]) was at most 30%, the “reduction in plasma triglycerides” value (STZ-Diabetic Rats [3]) was at most 60% and the plasma cholesterol (STZ-Diabetic Rats [3]) was 96 ± 5 mg/dL. The plasma triglycerides (STZ-Diabetic Rats [3]) was 239 ± 50 mg/dL and the “inhibition of hydroxyl radical formation” value [4] was “strong inhibitors”.

With “methylene bis(4,4′-(2-chlorophenylureidophenoxyisobutyric acid) [LR-90]” the “fluorescence and crosslinking” value (STZ-Diabetic Rats [1]) was “significant reduction” and the “inhibition of Cu++-mediated LDL oxidation (lipid peroxidation)” value (Human LDL) was “better than AG”.

With `CC(Oc1cccc2cccnc12)C(=O)O` (stereo not shown) [LR-74, 2-(8-quinolinoxy) propionic acid] the “fluorescence and crosslinking” value (STZ-Diabetic Rats [1]) was “significant reduction”, the “Kidney/Body wt. Ratio” value (STZ-Diabetic Rats [2]; diabetic (D) rats) was 1.52 ± 0.10 g/100 g and the “Plasma Creatinine” value (STZ-Diabetic Rats [2]; diabetic (D) rats) was 1.64 ± 0.44 mg/dL. The “Urinary Albumin” value (STZ-Diabetic Rats [2]; diabetic (D) rats) was 14.3 ± 3.7 mg/42 hr, the “decrease of elevated plasma creatinine concentrations” value (STZ-Diabetic Rats [2]) was about 50% and the “Kidney/Body wt. Ratio” value (STZ-Diabetic Rats [2]; non-diabetic (ND) rats) was 0.52 ± 0.01 g/100 g. For the same molecule, the “Plasma Creatinine” value (STZ-Diabetic Rats [2]; non-diabetic (ND) rats) was 0.42 ± 0.03 mg/dL, the “Urinary Albumin” value (STZ-Diabetic Rats [2]; non-diabetic (ND) rats) was 4.6 ± 1.2 mg/42 hr and the “reduction of plasma lipid hydroperoxides” value (STZ-Diabetic Rats [3]) was 45%. The “reduction in plasma cholesterol” value (STZ-Diabetic Rats [3]) was “approximately 30%”, the “reduction in plasma triglycerides” value (STZ-Diabetic Rats [3]) was about 70% and the plasma cholesterol (STZ-Diabetic Rats [3]) was 93 ± 2 mg/dL. For the same molecule, the plasma triglycerides (STZ-Diabetic Rats [3]) was 161 ± 29 mg/dL, the “inhibition of Cu++-mediated LDL oxidation (lipid peroxidation)” value (Human LDL) was “better than AG” and the “inhibition of hydroxyl radical formation” value [4] was “strong inhibitors”.
